Reference: patent publication US20210308028A1, “Compositions and Methods for Maintaining and Protecting Tissue Integrity and Barrier Function” (Colgate-Palmolive Company, priority 2020, published 2021)

What was measured:
[1] = system: zonula occludens-1 and occludin in B11 gingival keratinocytes; assay: Immunofluorescent staining of zonula occludens-1 and occludin; assay type: cell-based, human; conditions: no challenge; Example 3, FIGS. 8, 11, 14
Procedure: Gingival keratinocytes treated as described above for 12 h were immunostained for zonula occludens-1 and occludin, two tight junction proteins. Briefly, the cells were fixed in 50 mM phosphate-buffered saline (pH 7.2) (PBS) containing 4% paraformaldhehyde for 20 min, permeabilized with 0.1% Triton X-100 for 10 min, and blocked in 3% non-fat milk in 20 mM Tris-HCl (pH 8), 150 mM NaCl, and 0.5% Tween 20 for 40 min. […] After washing with PBS, the cells were then treated with ProLong® Diamond antifade (Life Technologies). The slides were sealed with nail polish and were kept in the dark at 4° C. The localization of tight junction proteins in B11 cells was visualized using an Olympus FSX100 fluorescence microscope and FSX-BSW imaging software (Olympus, Tokyo, Japan). Immunofluorescent staining of tight junction proteins is a qualitative assay.
The localization of the tight junction proteins in B11 cells was visualized using an Olympus FSX100 fluorescence microscope and FSX-BSW imaging software (Olympus, Tokyo, Japan).

[2] = system: zonula occludens-1 and occludin in gingival keratinocytes challenged with P. gingivalis; assay: Immunofluorescence of tight junction proteins with P. gingivalis challenge; assay type: cell-based, human; conditions: Example 4, FIGS. 17, 20, 23
Procedure: Gingival keratinocytes treated as described above for 12 h were immunostained for zonula occludens-1 and occludin, two tight junction proteins. Briefly, the cells were fixed in 50 mM phosphate-buffered saline (pH 7.2) (PBS) containing 4% paraformaldhehyde for 20 min, permeabilized with 0.1% Triton X-100 for 10 min, and blocked in 3% non-fat milk in 20 mM Tris-HCl (pH 8), 150 mM NaCl, and 0.5% Tween 20 for 40 min. The cells were incubated with 2.5 μg/mL of either occludin antibody-Alexa Fluor® 488 conjugate or ZO-1 antibody-Alexa Fluor® 594 conjugate in blocking buffer overnight at 4° C. After washing with PBS, the cells were then treated with ProLong® Diamond antifade (Life Technologies). The slides were sealed with nail polish and were kept in the dark at 4° C. The localization of tight junction proteins in B11 cells was visualized using an Olympus FSX100 fluorescence microscope and FSX-BSW imaging software (Olympus, Tokyo, Japan). Immunofluorescent staining of tight junction proteins is a qualitative assay.
The gingival epithelium, a stratified squamous tissue that acts as an interface between the external environment and the underlying connective tissue, plays an active role in maintaining oral health. […] The capability of test compositions to protect oral tissue from perio-pathogenic bacteria caused tissue damage was assessed using the methodology set out in Example 2. […]

[3] = system: B11 gingival keratinocytes challenged with P. gingivalis; assay: Paracellular permeability to FITC-dextran with P. gingivalis challenge; assay type: cell-based, human; conditions: P. gingivalis MOI=10^4; over 48 h; FIGS. 16, 19, 22
Procedure: (§1) The ability of test composition samples to enhance epithelial barrier integrity was assessed by monitoring the paracellular transport of FITC-conjugated 4.4-kDa dextran (FD-4; Sigma-Aldrich Canada Ltd.) across the keratinocyte layer. Briefly, B11 cells were cultured on Transwell filters, and FD-4 ([…] in culture medium) was added in the apical compartment in the presence of the test composition under investigation. Fluorescence in the basolateral compartment was measured at 0, 4, 8, 24, and 48 h using a Synergy 2 microplate reader (BioTek Instrument, Winooski, Vt., USA).
(§2) Briefly, B11 cells were cultured on Transwell™ filters, and FD-4 (1 mg/mL in culture medium) was added to the apical compartment in the presence of the test compounds. The presence of FD-4 in the basolateral compartment was determined at 0, 2, 6, 24, and 48 h by measuring the fluorescence (RUF; excitation wavelength 495 nm; emission wavelength 525 nm) using a Synergy 2 microplate reader.

[4] = system: B11 immortalized human gingival keratinocyte cell line; assay: Paracellular permeability to FITC-dextran (FD-4); assay type: cell-based; conditions: no challenge; over 48 h; FIGS. 7, 10, 13
Procedure: as §1, §2

[5] = system: P. gingivalis collagenase; assay: Proteolytic assay: collagen DQ degradation by P. gingivalis culture supernatant; assay type: biochemical, Porphyromonas gingivalis; conditions: Example 6, FIGS. 35, 38, 41; over 5 hours
Procedure: To determine the effects of formulations tested on the proteinase activity of P. gingivalis, a 48-h culture was centrifuged at 10 000×g for 10 min. […] The fluorescence corresponding to collagen degradation was monitored using a Synergy 2 microplate reader, with the excitation and emission wavelengths set at 495 nm and 525 nm, respectively. Test compounds or the fluorescent substrate alone were used as controls. For the proteolytic assay, the following ratio was used: 40% P. gingivalis supernatant+40% test compounds+20% DQ collagen. […]
To determine the effects of the Dual Zinc plus Arginine aqueous solution and dentifrice on the proteinase activity of P. gingivalis, a 48-h culture was centrifuged at 10 000×g for 10 min. Assay mixtures containing equal volumes of P. gingivalis culture supernatant, the fluorescent substrate collagen DQ™ (100 μg/mL; Molecular Probes, Eugene, Oreg., USA), and the Dual Zinc […] The fluorescence corresponding to collagen degradation was monitored using a Synergy 2 microplate reader, with the excitation and emission wavelengths set at 495 nm and 525 nm, respectively. Test compounds or the fluorescent substrate alone were used as controls. Leupeptin (1 μM) was used as a positive inhibitory control.

[6] = system: B11 gingival keratinocytes treated with TNF-α; assay: FITC-dextran paracellular transport with TNF-α challenge; assay type: cell-based, human; conditions: Example 5, FIGS. 25, 28, 31, 32; S1: the two higher percentages
Procedure: as §1
Assays exposed cells to either TNFα only or TNFα+test composition. TNFα is known to cause tissue damage. A stock solution of recombinant TNF-α is prepared in sterile distilled water at 100 μg/ml. Thereafter, dilutions are made in keratinocyte culture medium. First dilution is 1/1000 to obtain 100 ng/ml. TNF-α and the test compounds are added simultaneously.
Gingival keratinocytes were cultured in the apical chamber of Transwell™ inserts as described above. Immediately after adding fluorescein isothiocyanate-conjugated dextran of 4.4 kDa (FD-4; 1 mg/ml in culture medium) to the apical compartment, the formulations under investigation were added in presence of recombinant TNF-α (100 ng/ml). Fluorescence in the basolateral compartment was recorded after 0, 2, 6, 24, and 48 h of incubation using a Synergy 2 microplate reader (BioTek Instruments; Winooski, Vt., USA).

SMILES | immunofluorescence of tight junction proteins (Occludin, Zonula Occludens-1) [1] | immunofluorescence of tight junction proteins with P. gingivalis [2] | paracellular permeability to FITC-dextran with P. gingivalis [3] | paracellular permeability to FITC-dextran [4] | inhibition of P. gingivalis collagenase activity [5] | TNFα-induced paracellular permeability to FITC-dextran [6]
O=C([O-])CC(O)(CC(=O)[O-])C(=O)[O-].O=C([O-])CC(O)(CC(=O)[O-])C(=O)[O-].[Zn+2].[Zn+2].[Zn+2] [zinc citrate] | enhances barrier integrity | protects barrier integrity from the deleterious effects caused by the presence of P. gingivalis | decreased with the increase in concentration of zinc citrate | decreased with the increase in concentration of zinc citrate | inhibits collagenase activity of P. gingivalis in a dose response manner | protects oral tissue integrity from the deleterious effects caused by the presence of TNFα
[O]=[Zn] [zinc oxide] | enhances barrier integrity | protects barrier integrity from the deleterious effects caused by the presence of P. gingivalis | decreased with the increase in concentration of zinc oxide | decreased with the increase in concentration of zinc oxide | inhibits collagenase activity of P. gingivalis in a dose response manner | protects oral tissue integrity from the deleterious effects caused by the presence of TNFα
